Test [1] relates to MDA-MB-231. The experiment in a line: Induction of ER stress in human MDA-MB-231 cells assessed as increase in HSPA5A mRNA expression at 2 mM measured after 2 hrs by qPCR method. It counts as functional, cell-based. In general terms: Real-time PCR tracks product formation cycle by cycle.
Test [2] has as its system MDA-MB-231. Briefly: Induction of ER stress in human MDA-MB-231 cells assessed as increase in sXbp1 mRNA expression at 2 mM measured after 2 hrs by qPCR method. It counts as functional, cell-based.
Test [3] concerns MDA-MB-231. The experiment in a line: Induction of ER stress in human MDA-MB-231 cells assessed as increase in DDIT3 mRNA expression at 2 mM measured after 2 hrs by qPCR method. It counts as functional, cell-based.
In test [4] the test system is MDA-MB-231. The experiment in a line: Induction of ER stress in human MDA-MB-231 cells assessed as increase in DDIT3 mRNA expression at 2XEC50 measured after 6 hrs by qPCR method. It counts as functional, cell-based.
The subject of test [5] is MDA-MB-231. Briefly: Induction of ER stress in human MDA-MB-231 cells assessed as increase in HSPA5A mRNA expression at 2XEC50 measured after 6 hrs by qPCR method. It counts as functional, cell-based.
For test [6], the system named is MDA-MB-231. The experiment in a line: Induction of ER stress in human MDA-MB-231 cells assessed as increase in sXbp1 mRNA expression at 2XEC50 measured after 6 hrs by qPCR method. It counts as functional, cell-based.
Test [7] has as its target T1, Tyrosine-protein phosphatase non-receptor type 1 (Homo sapiens) (UniProt P18031).
T1 sequence (whole entry): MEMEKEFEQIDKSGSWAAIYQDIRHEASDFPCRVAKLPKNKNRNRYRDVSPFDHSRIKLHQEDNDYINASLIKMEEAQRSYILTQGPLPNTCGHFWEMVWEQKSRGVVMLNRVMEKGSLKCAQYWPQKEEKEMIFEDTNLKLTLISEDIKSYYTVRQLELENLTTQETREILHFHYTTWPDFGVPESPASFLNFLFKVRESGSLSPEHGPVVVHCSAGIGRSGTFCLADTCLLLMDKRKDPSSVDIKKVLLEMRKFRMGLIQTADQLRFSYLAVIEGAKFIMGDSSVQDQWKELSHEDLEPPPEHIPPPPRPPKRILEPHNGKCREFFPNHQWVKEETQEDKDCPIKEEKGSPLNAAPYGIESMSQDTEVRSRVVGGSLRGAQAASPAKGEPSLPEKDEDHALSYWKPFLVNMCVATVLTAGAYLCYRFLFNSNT
Briefly: Inhibition of PTP1B (unknown origin) at 1 uM.

The target of test [8] is Dual specificity protein phosphatase 3 (Homo sapiens) (UniProt P51452). Briefly: Inhibition of DUSP3 (unknown origin) at 1 uM.
The target of test [9] is T2, M-phase inducer phosphatase 2 (Homo sapiens) (UniProt P30305).
T2 sequence (whole entry): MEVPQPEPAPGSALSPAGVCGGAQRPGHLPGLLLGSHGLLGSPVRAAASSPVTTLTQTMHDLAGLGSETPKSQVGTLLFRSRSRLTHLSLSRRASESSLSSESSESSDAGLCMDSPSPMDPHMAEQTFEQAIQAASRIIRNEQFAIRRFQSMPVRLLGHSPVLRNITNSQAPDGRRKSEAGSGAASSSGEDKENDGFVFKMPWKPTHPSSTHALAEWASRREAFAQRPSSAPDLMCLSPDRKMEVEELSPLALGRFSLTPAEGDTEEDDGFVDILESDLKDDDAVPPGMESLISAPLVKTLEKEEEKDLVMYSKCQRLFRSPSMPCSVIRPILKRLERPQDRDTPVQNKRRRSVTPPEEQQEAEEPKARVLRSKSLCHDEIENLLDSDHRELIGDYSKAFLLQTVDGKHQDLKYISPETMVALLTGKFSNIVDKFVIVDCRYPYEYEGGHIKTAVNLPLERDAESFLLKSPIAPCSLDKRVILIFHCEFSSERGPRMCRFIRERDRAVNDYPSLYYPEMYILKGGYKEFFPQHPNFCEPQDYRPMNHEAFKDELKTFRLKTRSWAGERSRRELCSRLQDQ
Briefly: Inhibition of CDC25B (unknown origin) at 1 uM.

For test [10], the system named is MDA-MB-231. The experiment in a line: Cytotoxicity against JMS-053-pretreated human MDA-MB-231 cells at 20 to 60 uM measured after 72 hrs by CellTiter-Glo assay. The following applies: dose 20-60 µM. It counts as functional, cell-based.
The test system of test [11] is MDA-MB-231. The experiment in a line: cells. The following applies: Homo sapiens, MDA-MB-231, 72 h.

Active and inactive are the calls of the source. No cut-off for these calls is given here. Some results are limits rather than exact numbers.

The text below walks through data of ChEMBL document CHEMBL4819145, “Synthesis and evaluation of bifunctional PTP4A3 phosphatase inhibitors activating the ER stress pathway” (Bioorg Med Chem Lett, 2021).

What is called inhibition is the change of the read-out against control, counted positive when it falls. Higher therefore signals strong suppression. Usually EC50 stands for the concentration at which the effect is half-maximal. A low value points to an effect from little substance.

Dual specificity protein phosphatase 3 (Homo sapiens), sequence (P51452 whole entry, looked up): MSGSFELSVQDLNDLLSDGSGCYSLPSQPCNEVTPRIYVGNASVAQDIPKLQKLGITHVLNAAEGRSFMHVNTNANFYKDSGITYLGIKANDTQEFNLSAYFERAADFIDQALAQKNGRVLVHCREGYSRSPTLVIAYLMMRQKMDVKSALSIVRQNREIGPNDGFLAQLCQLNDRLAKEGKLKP

Take `OC(CS)C(O)CS` (stereo unspecified): the result in test [1], in test [2] and in test [3] was Active.

On to `N=C1C(=O)NC(=O)c2cc(-c3ccc(OCCCCNC(=O)CC45CC6CC(CC(C6)C4)C5)cc3)sc21`, for which the outcome in [4], in [5] and in test [6] was Active. Moreover, the inhibition in [7], in test [8] and in test [9] was less than 11% in each case.

For the molecule `O=C(CC12CC3CC(CC(C3)C1)C2)NCCCCO`, the outcome in test [10] was inactive. Also, the EC50 in test [11] was greater than 50 µM.
